Residue numbers refer to the chain shown, from its start. Read-outs that look alike come from different tables or passages of the source. One block for each compound: values may come before it.
Assays:
[1] = target: T1, Leri GR (Leucoraja erinaceus, UniProt Q1KXY4); assay: cell-based; set-up: species or system CHO-K1; Gal4DBD-LBD UAS-driven luciferase reporter transactivation, Dual-Glo read-out
T1 construct: LBD fused to Gal4 DBD in pSG5; CHO-K1 cells with UAS-luciferase
T1 sequence (Q1KXY4 1-317): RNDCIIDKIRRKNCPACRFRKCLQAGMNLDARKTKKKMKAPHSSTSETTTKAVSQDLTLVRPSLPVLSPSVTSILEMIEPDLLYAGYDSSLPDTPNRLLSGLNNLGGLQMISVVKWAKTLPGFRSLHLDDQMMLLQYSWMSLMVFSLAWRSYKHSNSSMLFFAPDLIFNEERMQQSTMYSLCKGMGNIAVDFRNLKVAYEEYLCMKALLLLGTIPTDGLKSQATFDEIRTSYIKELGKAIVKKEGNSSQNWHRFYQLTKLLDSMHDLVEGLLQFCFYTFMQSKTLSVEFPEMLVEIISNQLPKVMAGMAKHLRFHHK
Description: LBDs were cloned as fusion proteins into a pSG5-Gal4DBD expression vector (gift of D. Furlow) and cotransfected using Lipofectamine and Plus Reagents (Invitrogen, Carlsbad, CA) with a UAS-driven luciferase reporter gene (pFRluc) into mammalian cell culture (CHO-K1), and grown in phenol red-free α-MEM plus 10% dextran-charcoal-stripped fetal bovine serum (Hyclone, Logan, UT). Cells were incubated with transfection reagents for four hours, after which they were treated with fresh medium; after recovery, cells were treated in triplicate with hormone or vehicle control, and incubated for one day. Reporter expression was measured using Dual-Glo (Promega, Madison, WI) and dose-response relationships analyzed using Prism4 (GraphPad, La Jolla, CA). Site-directed mutagenesis was carried out using QuickChange II (Stratagene, La Jolla, CA) and clones verified by DNA sequencing. Plausible alternate states were defined as non-maximum likelihood amino acid states with posterior probability >0.20; we reasoned that residues that are present in one or more extant high-sensitivity receptors are the most likely to increase receptor sensitivity, whereas those that are present only in low-sensitivity receptors are unlikely to confer high sensitivity. Each such alternate state was introduced singly into the ML AncGR1.1, and the experimental characterization was repeated. We used a luciferase reporter gene expression assay to characterize the sensitivity of each LBD to four major corticosteroids present in elasmobranchs – 11-deoxycorticosterone (DOC), corticosterone, 1alpha-hydroxycorticosterone, and 11-dehydrocorticosterone, [35]. […] All hormone-activated cartilaginous fish GRs were most sensitive to DOC and corticosterone. The receptors had EC50 values (the hormone concentration required to elicit half-maximal activation) for these steroids in the 10^−8 to 10^−6 M range (Figure 2, Table S1), typical of the EC50s of bony fish GRs for glucocorticoids but two to four orders of magnitude greater than AncCR or the MRs of bony vertebrates. […]

[2] = target: T2, AncCR (synthetic construct, UniProt Z9R9E8A6B0); assay: luciferase reporter gene activation (Gal4DBD-LBD); type: cell-based; conditions: CHO-K1 cells, agonist, one day, triplicate; error is SE
T2 construct: LBD fused to Gal4 DBD in pSG5; CHO-K1 cells with UAS-luciferase
T2 sequence (Z9R9E8A6B0 4-249): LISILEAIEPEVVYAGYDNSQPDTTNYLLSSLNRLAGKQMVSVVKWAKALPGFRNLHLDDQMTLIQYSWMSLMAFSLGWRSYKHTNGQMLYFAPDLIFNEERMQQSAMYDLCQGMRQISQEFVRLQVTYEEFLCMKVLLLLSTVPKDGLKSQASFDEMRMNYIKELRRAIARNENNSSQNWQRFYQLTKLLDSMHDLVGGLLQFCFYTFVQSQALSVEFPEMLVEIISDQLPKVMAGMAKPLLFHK
From the text: (§1) luciferase reporter gene activation (Gal4DBD-LBD) on AncCR

[3] = target: T3, AncCR (synthetic construct, UniProt Z9R9E8A6B0, L4M/S74C, form not given); assay: luciferase reporter gene activation (Gal4DBD-LBD); type: cell-based; conditions: CHO-K1 cells, agonist, one day, triplicate; error is SE
T3 construct: LBD fused to Gal4 DBD in pSG5; CHO-K1 cells with UAS-luciferase
T3 sequence (Z9R9E8A6B0 4-249 L4M/S74C): T2 sequence (Z9R9E8A6B0 4-249) with L1M, S71C
From the text: as §1

[4] = target: T4, AncCR (synthetic construct, UniProt Z9R9E8A6B0, S74C/A110S, form not given); assay: luciferase reporter gene activation (Gal4DBD-LBD); type: cell-based; conditions: CHO-K1 cells, agonist, one day, triplicate; error is SE
T4 construct: LBD fused to Gal4 DBD in pSG5; CHO-K1 cells with UAS-luciferase
T4 sequence (Z9R9E8A6B0 4-249 S74C/A110S): T2 sequence (Z9R9E8A6B0 4-249) with S71C, A107S
From the text: as §1

[5] = target: T5, AncCR (synthetic construct, UniProt Z9R9E8A6B0, S74C, form not given); assay: luciferase reporter gene activation (Gal4DBD-LBD); type: cell-based; conditions: CHO-K1 cells, agonist, one day, triplicate; error is SE
T5 construct: LBD fused to Gal4 DBD in pSG5; CHO-K1 cells with UAS-luciferase
T5 sequence (Z9R9E8A6B0 4-249 S74C): T2 sequence (Z9R9E8A6B0 4-249) with S71C
From the text: as §1

[6] = target: T6, AncCR (synthetic construct, UniProt Z9R9E8A6B0, S74C/K86Q, form not given); assay: luciferase reporter gene activation (Gal4DBD-LBD); type: cell-based; conditions: CHO-K1 cells, agonist, one day, triplicate; error is SE
T6 construct: LBD fused to Gal4 DBD in pSG5; CHO-K1 cells with UAS-luciferase
T6 sequence (Z9R9E8A6B0 4-249 S74C/K86Q): T2 sequence (Z9R9E8A6B0 4-249) with S71C, K83Q
From the text: as §1

[7] = target: T7, AncCR (synthetic construct, UniProt Z9R9E8A6B0, S74C/Q116K, form not given); assay: luciferase reporter gene activation (Gal4DBD-LBD); type: cell-based; conditions: CHO-K1 cells, agonist, one day, triplicate; error is SE
T7 construct: LBD fused to Gal4 DBD in pSG5; CHO-K1 cells with UAS-luciferase
T7 sequence (Z9R9E8A6B0 4-249 S74C/Q116K): T2 sequence (Z9R9E8A6B0 4-249) with S71C, Q113K
From the text: as §1

[8] = target: T8, AncCR (synthetic construct, UniProt Z9R9E8A6B0, S74C/Q214E, form not given); assay: luciferase reporter gene activation (Gal4DBD-LBD); type: cell-based; conditions: CHO-K1 cells, agonist, one day, triplicate; error is SE
T8 construct: LBD fused to Gal4 DBD in pSG5; CHO-K1 cells with UAS-luciferase
T8 sequence (Z9R9E8A6B0 4-249 S74C/Q214E): T2 sequence (Z9R9E8A6B0 4-249) with S71C, Q211E
From the text: as §1

[9] = target: T9, AncCR (synthetic construct, UniProt Z9R9E8A6B0, S74C/R119H, form not given); assay: luciferase reporter gene activation (Gal4DBD-LBD); type: cell-based; conditions: CHO-K1 cells, agonist, one day, triplicate; error is SE
T9 construct: LBD fused to Gal4 DBD in pSG5; CHO-K1 cells with UAS-luciferase
T9 sequence (Z9R9E8A6B0 4-249 S74C/R119H): T2 sequence (Z9R9E8A6B0 4-249) with S71C, R116H
From the text: as §1

[10] = target: T10, AncCR (synthetic construct, UniProt Z9R9E8A6B0, V46A/R119H, form not given); assay: luciferase reporter gene activation (Gal4DBD-LBD); type: cell-based; conditions: CHO-K1 cells, agonist, one day, triplicate; error is SE
T10 construct: LBD fused to Gal4 DBD in pSG5; CHO-K1 cells with UAS-luciferase
T10 sequence (Z9R9E8A6B0 4-249 V46A/R119H): T2 sequence (Z9R9E8A6B0 4-249) with V43A, R116H
From the text: as §1

[11] = target: T11, AncCR (synthetic construct, UniProt Z9R9E8A6B0, V46A/S74C, form not given); assay: luciferase reporter gene activation (Gal4DBD-LBD); type: cell-based; conditions: CHO-K1 cells, agonist, one day, triplicate; error is SE
T11 construct: LBD fused to Gal4 DBD in pSG5; CHO-K1 cells with UAS-luciferase
T11 sequence (Z9R9E8A6B0 4-249 V46A/S74C): T2 sequence (Z9R9E8A6B0 4-249) with V43A, S71C
From the text: as §1

[12] = target: T12, AncCR (synthetic construct, UniProt Z9R9E8A6B0, V46A/S74C/R119H, form not given); assay: luciferase reporter gene activation (Gal4DBD-LBD); type: cell-based; conditions: CHO-K1 cells, agonist, one day, triplicate; error is SE
T12 construct: LBD fused to Gal4 DBD in pSG5; CHO-K1 cells with UAS-luciferase
T12 sequence (Z9R9E8A6B0 4-249 V46A/S74C/R119H): T2 sequence (Z9R9E8A6B0 4-249) with V43A, S71C, R116H
From the text: as §1

EC50 ([1]; read-out: B log EC50 (converted)): 28.3 nM
SMILES: C[C@]12C[C@H](O)[C@H]3[C@@H](CCC4=CC(=O)CC[C@@]43C)[C@@H]1CC[C@@H]2C(=O)CO [B, corticosterone]

EC50 ([1]; read-out: 1α-B log EC50 (converted)): 2000 nM
SMILES: C[C@]12C[C@H](O)[C@H]3[C@@H](CCC4=CC(=O)C[C@H](O)[C@@]43C)[C@@H]1CC[C@@H]2C(=O)CO [1α-B, 1α-hydroxycorticosterone]

SMILES: C[C@]12CC[C@H]3[C@@H](CCC4=CC(=O)CC[C@@]43C)[C@@H]1CC[C@@H]2C(=O)CO [DOC, 11-deoxycorticosterone]
log EC50 ^b [2]: −10.690 ± 0.64 log10 M | log EC50 ^b [3]: −10.250 ± 0.30 log10 M | log EC50 ^b [4]: −10.350 ± 0.24 log10 M | log EC50 ^b [5]: −10.870 ± 0.34 log10 M | log EC50 ^b [6]: −10.330 ± 0.41 log10 M | log EC50 ^b [7]: −9.773 ± 0.43 log10 M | log EC50 ^b [8]: −10.170 ± 0.43 log10 M | log EC50 ^b [9]: −8.812 ± 0.28 log10 M | log EC50 ^b [10]: −8.387 ± 0.54 log10 M | log EC50 ^b [11]: −8.443 ± 0.15 log10 M | log EC50 ^b [12]: −6.418 ± 0.06 log10 M | EC50 ([1]; read-out: DOC log EC50 (converted)): 305 nM
